Assay results published in patent US20050227978A1, “Fibrosis inhibitor” (Sumitomo Pharmaceuticals Co., Ltd., priority 2002, published 2005).

Key:
[1] = tested on: TGF-β; experiment: Effects on the extracellular matrix (proteoglycan) production by TGF-β in NRK-49F fibroblasts; format: cell-based; conditions: Rattus norvegicus, NRK-49F cells, 3 ng/ml TGF-β, [35S]-proteoglycan radioactivity, 24 hours, read-out: TGF-β inhibitory rate (%); for inhibition at 3 µM: test compound 3 μM; for inhibition at 10 µM: test compound 10 μM
Protocol: Effects on the Extracellular Matrix Production by TGF-β
The effect of the compounds of Examples on the production of proteoglycan when TGF-β was added to fibroblast was evaluated.
NRK-49F cells (rat fibroblast) were cultured in Dulbecco's Modified Eagle Medium (DMEM: manufactured by GIBCO) containing 10% bovine serum, and used in this experiment. The cells were put into a 96-well plate in an amount of 2.5×10^4 cells/100 μl/well. On the next day, the medium in the plate was exchanged to the DMEM medium containing 3 ng/ml of TGF-β (manufactured by Nacalai Tesque, Inc.), 0.5 μCi/well of [^35S]-Na2SO4, and a test compound. Twenty-four hours thereafter, the supernatant was collected, and subjected to SDS-polyacrylamide gel electrophoresis (SDS-PAGE) in a conventional manner. The gel after electrophoresis was dried with a gel drier, and exposed to an imaging plate, which was analyzed with BSA2000 (manufactured by Fuji Photo Film). The radioactivity of proteoglycan to be electrophoresed was measured, and the TGF-β inhibitory rate was calculated by the following equation. TGF-β Inhibitory rate (%)=(A−B)×100/(A−C) • A: Radioactivity in the presence of TGF-β without a test compound • B: Radioactivity in the presence of TGF-β and a test compound • C: Radioactivity in the absence of TGF-β and a test compound

[2] = tested on: rat Thy-1 nephritis model; experiment: Evaluation using rat Thy-1 nephritis model (kidney fibrosis); format: in vivo; conditions: 7 days
Protocol: The anti-fibrosis activity was evaluated on the compounds of Examples 9, 14, 110, 120 and 136 by using a rat Thy-1 nephritis model, which is an animal model for kidney fibrosis (cf., “Kidney and Dialysis”, vol. 31, p. 343-347 (1991)). Thy-1 is one of the surface antigens of thymocyte.
Male Wister rats were purchased from Charles River Japan, Inc. at an age of 3-weeks old. After pre-feeding, the animals were used in this experiment when their body weights became about 100 g. The animals were kept in a room being controlled at a temperature of 24±2° C. under a humidity of 55±10%, with an illumination cycle of light on (8:00 to 20:00). The animals were given solid diet pellets (CRF-1, Oriental Yeast Co. Ltd.) and sterilized tap water ad libitum.
Anti-Thy-1 monoclonal antibody (OX-7, Biosource International Inc.) was administered to the rats at a dose of 50 μg/100 g of body weight at the tail vein. Then, the animals were grouped into the vehicle-treated group (n=8) and the test compound-treated group (n=8) with respect to the body weight. From the day of administration of anti-Thy-1 monoclonal antibody, a test compound, which was suspended in a 0.5% carboxymethylcellulose (vehicle), […] To the vehicle-treated group, a vehicle was administered likewise.
After the administration for 7 days, the right kidney of the rats was taken out, and the content of hydroxyproline therein, which was an index for organ fibrosis, was measured according to the method of J. F. Woessner, et al. (Arch. Biochem. Biophys. Vol. 93 p440 (1961)). That is, the kidney was homogenized, and 500 μL of the suspension was dried, and thereto was added a 4N aqueous sodium hydroxide solution (225 μL). The mixture was heated on a heat block at 100° C. for 15 minutes to hydrolyze proteins, and the mixture was neutralized with a 1.4 M aqueous citric acid solution (275 μL). The mixture was centrifuged at 3000 rpm for 10 minutes at room temperature, and the supernatant was collected as a kidney extract. To the extract were added Chloramine T solution and an Ehrlich solution (which was prepared by adding n-propanol (31 ml) to p-dimethylaminobenzaldehyde (7.5 g), and further slowly adding thereto a 60% perchloric acid (13 mL), and followed by adjusting the volume to 50 ml by distilled water), and the mixture was reacted at 65° C. for 15 minutes. The OD 550 (absorbance at 550 nm) was measured, and the concentration of hydroxyproline was calculated from the analytical curve of hydroxyproline. The content of hydroxyproline thus obtained was adjusted with respect to the protein amount in the kidney extract.
Each value was expressed in average value±standard deviation of 8 animals in each group.

| Structure (SMILES) | inhibition at 3 µM [1] [%] | inhibition at 10 µM [1] [%] | also measured |
| --- | --- | --- | --- |
| Cc1ccc(C(=O)c2cccn2Cc2cnc3ccccc3c2)cc1 [Example 2] | 33 | 61 |  |
| Cc1ccc(C(=O)c2cccn2Cc2ccnc3ccccc23)cc1 [Example 3] | 25 | 38 |  |
| Cc1ccc(Cc2cccn2Cc2ccc3ccccc3n2)cc1 [Example 5] | 6 | 51 |  |
| Cc1ccc(S(=O)(=O)n2cccc2C(O)c2cnc3ccccc3c2)cc1 (centres unmarked) [Example 6, (1-p-toluenesulfonyl-1H-pyrrol-2-yl)(3-quinolyl)methanol] | 66 | 88 |  |
| Cc1ccc(Cn2cccc2Cc2cnc3ccccc3c2)cc1 [Example 7, 1-(4-methylbenzyl)-2-(3-quinolylmethyl)-1H-pyrrole] | 44 | 78 |  |
| Cc1ccc(C(=O)c2cccn2Cc2cnc3cccnc3n2)cc1 [Example 8] | 16 | 46 |  |
| Cc1ccc(C(=O)c2cccn2C/C=C/c2ccc(Cl)cc2C(=O)O)cc1 [Example 9] | 88 | 91 | Hydroxyproline content ([2]; 15 mg/kg oral once a day, right kidney, Table 2: normal rat 6.7 ± 1.6, vehicle 8.7 ± 2.0, mean ± SD, n=8): 7.2 ± 2.1 μg/mg protein |
| C=CCOc1ccc(C(=O)c2cccn2Cc2cnc3ccccc3c2)cc1 [Example 10] | 63 | 86 |  |
| O=C(c1ccc(O)cc1)c1cccn1Cc1cnc2ccccc2c1 [Example 14] | 40 | 56 | Hydroxyproline content ([2]; 150 mg/kg oral once a day, right kidney, Table 2: normal rat 6.7 ± 1.6, vehicle 8.7 ± 2.0, P < 0.05 vs vehicle): 6.3 ± 1.3 μg/mg protein |
| Cc1ccc(C(=O)c2cccn2C/C=C/c2ccccc2C(=O)O)cc1 [Example 19] | 51 | 72 |  |
| Cc1ccc(C(O)c2cccn2Cc2cnc3ccccc3c2)cc1 (centres unmarked) [Example 20, [1-(3-quinolylmethyl)-1H-pyrrol-2-yl](4-methylphenyl)methanol] | 61 | 90 |  |
| Cc1ccc(Cc2cccn2Cc2cnc3ccccc3c2Cl)cc1 [Example 25] | 6 | 74 |  |
| Cc1ccc(C(=O)c2cccn2Cc2cnc3cccc(C(N)=O)c3c2)cc1 [Example 31] | 34 | 38 |  |
| Cc1ccc(C(=O)c2cccn2Cc2cnc3cc(Cl)ccc3c2)cc1 [Example 33] | 74 | 91 |  |
| Cc1ccc(C(=O)c2cccn2Cc2cnc3c(C#N)cccc3c2)cc1 [Example 38] | 51 | 40 |  |
| Cc1ccc(C(=O)c2cccn2Cc2cnc3cccc(C(=O)O)c3c2)cc1 [Example 43] | 31 | 66 |  |
| Cc1ccc(C(=O)c2cccn2Cc2cnc3c(/C=C/C(=O)N(C)C)cccc3c2)cc1 [Example 61] | 15 | 86 |  |
| Cc1ccc(C(=O)c2cccn2Cc2cnc3ccccc3n2)cc1 [Example 64] | 43 | 75 |  |

| Structure (SMILES) | inhibition at 3 µM [1] [%] | inhibition at 10 µM [1] [%] | also measured |
| --- | --- | --- | --- |
| Cc1ccc(C(=O)c2cccn2Cc2cnc3c(C#N)cccc3n2)cc1 [Example 66] | 88 | 94 |  |
| Cc1ccc(C(=O)c2cccn2Cc2cnc3cc(C#N)ccc3n2)cc1 [Example 67] | 55 | 75 |  |
| Cc1ccc(C(=O)c2cccn2Cc2cnc3ncccc3n2)cc1 [Example 73] | 70 | 85 |  |
| CN(C)C(=O)c1ccc(C(=O)c2cccn2Cc2cnc3ccccc3c2)cc1 [Example 76] | 56 | 58 |  |
| Cc1ccc(C(=O)c2cccn2Cc2cnc3ccccc3c2)cc1OCC(O)CO (centres unmarked) [Example 83] | 42 | 47 |  |
| Cc1ccc(C(=O)c2cccn2Cc2cnc3ccccc3c2)c(O)c1 [Example 85] | 29 | 75 |  |
| COc1ccc(C(=O)c2cccn2Cc2cnc3ccccc3n2)cc1 [Example 91] | 66 | 73 |  |
| O=C(c1ccc(OCCN2CCOCC2)cc1)c1cccn1Cc1cnc2ccccc2c1 [Example 97] | 58 | 75 |  |
| COC(=O)c1cc(Cl)ccc1/C=C/Cn1cccc1C(=O)c1ccc(O)cc1 [Example 103] | 55 | 90 |  |
| Cc1ccc(C(=O)c2cccn2Cc2cnc3nccnc3c2)cc1 [Example 105] | 14 | 48 |  |
| Cc1ccc(C(=O)c2cc(C)cn2Cc2cnc3ccccc3c2)cc1 [Example 107] | 90 | 95 |  |
| Cc1ccc(C(=O)c2c(C)ccn2Cc2cnc3ccccc3c2)cc1 [Example 108] | 42 | 56 |  |
| COc1ccc(C(=O)c2cc(C)cn2C/C=C/c2ccc(Cl)cc2C(=O)O)cc1 [Example 110] |  |  | Hydroxyproline content ([2]; 1.5 mg/kg oral, kidney, Table 3: normal rat 8.2 ± 0.8, vehicle 11.8 ± 0.6, P < 0.01 vs vehicle): 10.1 ± 0.8 μg/mg protein; Hydroxyproline content ([2]; 5 mg/kg oral, kidney, Table 3: normal rat 8.2 ± 0.8, vehicle 11.8 ± 0.6, P < 0.01 vs vehicle): 9.5 ± 0.8 μg/mg protein; Hydroxyproline content ([2]; 15 mg/kg oral, kidney, Table 3: normal rat 8.2 ± 0.8, vehicle 11.8 ± 0.6, P < 0.01 vs vehicle): 9.7 ± 0.7 μg/mg protein; Hydroxyproline content ([2]; 50 mg/kg oral, kidney, Table 3: normal rat 8.2 ± 0.8, vehicle 11.8 ± 0.6, P < 0.01 vs vehicle): 9.5 ± 0.6 μg/mg protein |
| COC(=O)c1cc(Cl)ccc1/C=C/Cn1cc(C)cc1C(=O)c1ccc(O)cc1 [Example 111] | 90 | 118 |  |
| Cc1ccc(C(=O)c2cc(C=O)cn2C/C=C/c2ccc(Cl)cc2C(=O)O)cc1 [Example 112] | 23 | 73 |  |
| Cc1ccc(C(=O)c2cccn2C/C=C/c2ccc(Cl)cc2C(=O)NS(C)(=O)=O)cc1 [Example 115] | 46 | 56 |  |
| CNC(=O)c1cc(Cl)ccc1/C=C/Cn1cccc1C(=O)c1ccc(C)cc1 [Example 117] | 71 | 83 |  |
